In assay [1] the target is T1, Lysine-specific demethylase 4B (Homo sapiens, UniProt O94953).
T1 sequence (O94953 whole entry): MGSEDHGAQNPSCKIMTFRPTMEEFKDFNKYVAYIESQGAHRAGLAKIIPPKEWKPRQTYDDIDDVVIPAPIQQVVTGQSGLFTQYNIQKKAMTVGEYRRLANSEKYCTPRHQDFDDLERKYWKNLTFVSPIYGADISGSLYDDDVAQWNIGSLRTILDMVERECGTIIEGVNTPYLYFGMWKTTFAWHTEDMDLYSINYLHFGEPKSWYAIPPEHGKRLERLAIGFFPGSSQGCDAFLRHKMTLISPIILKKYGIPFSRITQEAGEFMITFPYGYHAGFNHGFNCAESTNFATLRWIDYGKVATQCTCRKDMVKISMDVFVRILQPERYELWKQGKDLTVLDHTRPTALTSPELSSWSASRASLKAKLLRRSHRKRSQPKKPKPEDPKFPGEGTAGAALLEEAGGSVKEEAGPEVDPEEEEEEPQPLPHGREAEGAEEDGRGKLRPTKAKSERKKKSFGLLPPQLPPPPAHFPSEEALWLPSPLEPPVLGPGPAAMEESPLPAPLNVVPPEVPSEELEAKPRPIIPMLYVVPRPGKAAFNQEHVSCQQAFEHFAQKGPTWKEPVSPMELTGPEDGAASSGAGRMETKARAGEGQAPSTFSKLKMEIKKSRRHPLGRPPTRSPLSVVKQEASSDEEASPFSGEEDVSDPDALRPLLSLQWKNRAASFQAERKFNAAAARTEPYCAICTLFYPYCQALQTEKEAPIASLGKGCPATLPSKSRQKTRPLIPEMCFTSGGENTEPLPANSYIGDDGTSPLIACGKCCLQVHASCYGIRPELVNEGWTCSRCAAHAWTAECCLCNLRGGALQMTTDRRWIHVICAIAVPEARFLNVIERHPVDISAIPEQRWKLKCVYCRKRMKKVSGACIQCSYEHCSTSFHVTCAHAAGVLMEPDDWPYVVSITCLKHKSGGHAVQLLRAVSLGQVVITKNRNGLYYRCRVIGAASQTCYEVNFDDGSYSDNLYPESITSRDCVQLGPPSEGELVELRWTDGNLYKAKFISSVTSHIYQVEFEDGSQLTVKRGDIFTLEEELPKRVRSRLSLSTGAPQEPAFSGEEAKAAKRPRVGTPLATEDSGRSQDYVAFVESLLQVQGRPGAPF
In words: Inhibition of human N-terminal GST-tagged KDM4B (1 to 500 residues) expressed in baculovirus infected sf9 cells using biotinylated histone H3 as substrate preincubated for 10 mins followed by substrate addition measured after 10 mins by AlphaLisa assay. A general note: Alpha assays give light when donor and acceptor beads are brought close together.

Assay [2] deals with T2, Lysine-specific demethylase 2B (Homo sapiens, UniProt Q8NHM5).
T2 sequence (Q8NHM5 whole entry): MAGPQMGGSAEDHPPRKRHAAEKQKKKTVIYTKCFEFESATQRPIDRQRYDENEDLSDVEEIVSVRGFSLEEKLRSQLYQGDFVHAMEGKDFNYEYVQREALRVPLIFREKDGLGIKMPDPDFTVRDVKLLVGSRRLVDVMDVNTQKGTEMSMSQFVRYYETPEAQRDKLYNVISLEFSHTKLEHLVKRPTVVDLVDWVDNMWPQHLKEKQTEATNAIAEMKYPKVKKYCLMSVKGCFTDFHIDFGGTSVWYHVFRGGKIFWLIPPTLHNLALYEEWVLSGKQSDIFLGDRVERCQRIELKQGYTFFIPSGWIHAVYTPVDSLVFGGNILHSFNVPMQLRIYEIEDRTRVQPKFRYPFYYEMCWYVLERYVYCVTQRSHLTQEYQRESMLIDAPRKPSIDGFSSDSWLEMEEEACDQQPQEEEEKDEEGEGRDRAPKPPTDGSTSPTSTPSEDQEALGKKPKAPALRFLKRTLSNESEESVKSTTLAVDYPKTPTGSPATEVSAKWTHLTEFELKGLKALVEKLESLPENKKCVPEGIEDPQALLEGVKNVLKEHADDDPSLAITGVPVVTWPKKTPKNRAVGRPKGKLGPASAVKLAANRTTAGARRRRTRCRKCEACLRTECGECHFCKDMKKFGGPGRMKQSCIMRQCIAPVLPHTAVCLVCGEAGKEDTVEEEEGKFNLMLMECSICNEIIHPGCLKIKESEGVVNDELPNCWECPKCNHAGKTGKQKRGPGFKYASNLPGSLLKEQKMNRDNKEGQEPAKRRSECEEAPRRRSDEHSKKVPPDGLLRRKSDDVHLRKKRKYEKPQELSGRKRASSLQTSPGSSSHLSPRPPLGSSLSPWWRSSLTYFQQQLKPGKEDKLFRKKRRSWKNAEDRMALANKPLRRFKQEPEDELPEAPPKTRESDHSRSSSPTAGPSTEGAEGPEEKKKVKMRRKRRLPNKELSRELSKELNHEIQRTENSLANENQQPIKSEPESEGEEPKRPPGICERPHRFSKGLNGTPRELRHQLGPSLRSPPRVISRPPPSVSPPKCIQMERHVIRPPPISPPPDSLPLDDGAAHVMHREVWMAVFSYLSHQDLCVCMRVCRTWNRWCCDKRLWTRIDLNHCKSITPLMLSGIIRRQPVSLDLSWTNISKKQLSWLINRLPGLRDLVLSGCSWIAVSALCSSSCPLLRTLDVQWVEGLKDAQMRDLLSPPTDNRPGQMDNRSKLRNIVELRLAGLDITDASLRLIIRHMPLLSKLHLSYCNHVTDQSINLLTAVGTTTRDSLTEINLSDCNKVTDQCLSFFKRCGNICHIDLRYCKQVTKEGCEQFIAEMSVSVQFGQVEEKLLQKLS
In words: biochemical.

The target of assay [3] is Lysine-specific demethylase 6B (Homo sapiens, UniProt O15054). In words: biochemical.
Sequence of Lysine-specific demethylase 6B (O15054 whole entry): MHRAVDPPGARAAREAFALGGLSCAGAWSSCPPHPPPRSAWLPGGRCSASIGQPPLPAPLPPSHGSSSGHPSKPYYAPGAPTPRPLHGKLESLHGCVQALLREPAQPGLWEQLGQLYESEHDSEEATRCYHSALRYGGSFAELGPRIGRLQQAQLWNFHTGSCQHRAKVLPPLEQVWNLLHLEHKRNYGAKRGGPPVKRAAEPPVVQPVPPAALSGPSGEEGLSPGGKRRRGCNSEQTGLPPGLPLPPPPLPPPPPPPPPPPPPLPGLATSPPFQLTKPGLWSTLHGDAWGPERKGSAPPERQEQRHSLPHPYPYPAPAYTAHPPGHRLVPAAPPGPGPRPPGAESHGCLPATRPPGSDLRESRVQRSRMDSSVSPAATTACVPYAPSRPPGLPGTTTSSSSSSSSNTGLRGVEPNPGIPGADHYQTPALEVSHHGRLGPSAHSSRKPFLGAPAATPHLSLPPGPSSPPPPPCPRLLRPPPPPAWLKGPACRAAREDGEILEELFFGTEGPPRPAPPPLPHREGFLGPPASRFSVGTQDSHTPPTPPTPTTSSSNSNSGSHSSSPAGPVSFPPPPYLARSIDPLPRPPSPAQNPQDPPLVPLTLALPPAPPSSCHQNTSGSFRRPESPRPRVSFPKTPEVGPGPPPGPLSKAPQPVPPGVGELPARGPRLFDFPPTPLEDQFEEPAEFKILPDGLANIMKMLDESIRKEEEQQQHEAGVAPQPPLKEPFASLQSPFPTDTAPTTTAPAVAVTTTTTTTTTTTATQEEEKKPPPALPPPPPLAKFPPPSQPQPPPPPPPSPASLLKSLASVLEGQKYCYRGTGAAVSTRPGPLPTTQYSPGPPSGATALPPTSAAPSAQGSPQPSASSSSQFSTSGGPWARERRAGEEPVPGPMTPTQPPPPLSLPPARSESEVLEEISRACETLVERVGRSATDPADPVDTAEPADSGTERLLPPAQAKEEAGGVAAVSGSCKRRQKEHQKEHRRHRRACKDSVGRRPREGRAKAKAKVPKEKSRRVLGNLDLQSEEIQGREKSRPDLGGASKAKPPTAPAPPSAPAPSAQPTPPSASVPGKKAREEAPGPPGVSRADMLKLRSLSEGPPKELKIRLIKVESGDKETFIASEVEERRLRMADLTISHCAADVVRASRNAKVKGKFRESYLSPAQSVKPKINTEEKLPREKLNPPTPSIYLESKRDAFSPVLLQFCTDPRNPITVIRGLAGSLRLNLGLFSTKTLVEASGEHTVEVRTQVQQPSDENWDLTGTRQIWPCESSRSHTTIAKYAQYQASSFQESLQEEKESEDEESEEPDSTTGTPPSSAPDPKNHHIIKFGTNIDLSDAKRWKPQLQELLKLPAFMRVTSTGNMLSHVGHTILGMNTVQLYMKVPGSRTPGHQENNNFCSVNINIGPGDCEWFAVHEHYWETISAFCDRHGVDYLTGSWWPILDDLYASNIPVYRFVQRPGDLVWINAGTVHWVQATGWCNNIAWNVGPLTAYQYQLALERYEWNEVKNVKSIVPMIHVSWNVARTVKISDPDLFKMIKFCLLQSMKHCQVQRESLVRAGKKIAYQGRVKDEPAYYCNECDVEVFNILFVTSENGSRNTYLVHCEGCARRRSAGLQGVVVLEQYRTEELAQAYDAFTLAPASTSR

One may read the IC50 as the concentration that gives 50% inhibition. A low value points to inhibition by little substance.

SMILES strings stand for the structures.

`CCN(CCN(C)C)C(=O)CNCc1cc(CNC(=O)C(F)(F)F)ccn1`: the half-inhibitory concentration (IC50) in assay [1], in assay [2] and in assay [3] was above 2.5 µM in each case.

Take `CCN(CCN(C)C)C(=O)CNCc1cc(C(=O)O)ccn1`: the half-maximal inhibitory concentration (IC50) in assay [1] is below 0.1 µM; in assay [2] it was 0.1 µM; in assay [3], above 1 µM.

With `CCN(CC)CCCCNCc1cc(C=O)ccn1`, the figures for the IC50 in assay [1], in assay [2] and in assay [3] were below 0.25 µM, above 2.5 µM and above 2.5 µM, respectively.

For the origin of these results see ChEMBL document CHEMBL3784917, “Recent Progress in Histone Demethylase Inhibitors” (J Med Chem, 2016).
